According to article PMC4821887, “Identification of chemicals that mimic transcriptional changes associated with autism, brain aging and neurodegeneration” (Nature Communications, 2016):
“Also recorded” adds a separate entry of the source. Structures can show the parent of a compound that is named as a salt.

What was measured:
[1] = tested on: mitochondrial superoxide in cortical neurons; experiment: Mitochondrial superoxide detection (MitoSOX Red live-cell imaging); assay type: cell-based, mouse; conditions: for Effect of pretreatment on fenamidone-induced O2− production: 2 h, fenamidone 10 μM; for Mitochondrial superoxide (O2−) production: 2 h treatment, MitoSOX, vincristine 500 µM in Supplementary Fig. 10b; for O2− production at the sequencing concentration: seven-point concentration-response, Supplementary Fig. 8
cortical neurons [2] = experiment: Soma morphology (proportion of cells with altered soma morphology) in live-cell imaging; assay type: cell-based, mouse; conditions: for Effect of pretreatment on fenamidone-induced soma swelling / aberrant morphology: 2 h, fenamidone 10 μM; for Soma swelling / aberrant cell morphology: 2 h treatment, vincristine 500 µM in Supplementary Fig. 10c
purified tubulin = experiment: Tubulin polymerization assay (cell-free, BK011P); assay type: biochemical; conditions: 37 °C, fluorescence over 60 min, equimolar doses
cortical neuron cultures = tested on: cortical neuron cultures; design: method as in PMID 25404338; conditions: cited from earlier work
[3] = tested on: mouse cortical neuron-enriched cultures; experiment: RNA-seq transcriptional screen with hierarchical clustering and cluster membership; assay type: cell-based; conditions: for Chemical cluster assigned by gene expression: 24 h at non-toxic concentration, hierarchical clustering of 5,121 variably expressed genes
Method: (§1) Cultures were treated with the non-cytotoxic dose of each chemical, by exchanging half of the original medium with chemicals at 2 × concentration in prewarmed feeding medium, on DIV 7 for 24 h in 12-well plates at a density of 5 × 10^5 cells per well. RNA was isolated using RNeasy plus mini kit (Cat. #74134, Qiagen). RNA yield and quality were determined using a Nanodrop 1000 Spectrophotometer (Thermo Scientific). Samples were further assessed for quality using either an Agilent Bioanalyzer 2100 or TapeStation 2200 to obtain a RIN. RIN values exceeding 7 were used for sequencing. RNA samples were used to generate and barcode complementary DNA libraries using the TruSeq RNA Library Preparation Kit at the UNC High Throughput Sequencing Facility. Pools of 24 multiplexed samples were sequenced per lane on an Illumina HiSeq 2500 using 50-bp paired-end reads.
(§2) RNA-seq reads were filtered using TagDust and aligned to the reference mouse genome (mm9) with TopHat using default parameters. Reads aligning to ribosomal RNA genes were removed. Transcript abundance was estimated by computing Reads per kilobase per million mapped reads (RPKM) using RefSeq gene models aggregated by gene symbol. For differential expression analyses, raw counts over RefSeq exons were used, and then were compared across samples using DESeq[62].
RPKMs for all RefSeq genes and all samples were filtered such that a given gene had >90% of samples with RPKM >0 and gene length exceeded 500 bp. RPKMs were then log10-transformed, quantile-normalized, median-centred, and the effects due to culture or sequencing batch were removed using a mixed model analysis of variance. This batch correction step was performed on individual experiments rather than chemical–vehicle ratios to reduce the effects due to variations in culture composition as well as batch-to-batch variations at the level of sequencing. Genes were then median-centred again, and filtered such that their s.d. exceeded 0.1. Chemical replicates were then combined using the median. Classes of chemicals were then discovered in two ways. First, we performed hierarchical clustering using average linkage and Pearson correlation distance measures. The boundaries of the discovered classes from clustering were set by computing pairwise Spearman correlations for all samples. A given cluster had to have at least three members with the minimum pairwise Spearman correlation coefficient exceeding 0.2, though cluster members often exceeded a correlation of 0.6 (Supplementary Fig. 5c,d). Seven chemical clusters were discovered, however one was removed due to failing to have a positive silhouette width, a metric of cluster robustness. These definitions enabled the three positive control topoisomerase inhibitors to form a cohesive group of chemicals with known structural and functional similarity (cluster 5). None of the culture or sequencing batches contributed to the formation of any one of the final six clusters (Supplementary Fig. 4).

cortical neurons [4] = tested on: cortical neurons; design: method as in PMID 20881019; conditions: cited from earlier work
[5] = cited from earlier work
mouse cortical cultures = experiment: RNA-seq differential expression (DESeq) against matched vehicle; assay type: cell-based; conditions: 24 h
Method: Figure 4 Cluster 2 chemicals alter expression of a common set of genes. […] RNA-seq was performed in quadruplicate after treating cortical cultures with fenamidone (10 μM) or pyraclostrobin (0.1 μM) for 24 h (n=3 biological replicates) and compared with matched vehicle controls using DESeq to detect differentially expressed genes, listed in Supplementary Data 4.
as §1, with “[…].” for “RNA yield and quality were determined using a Nanodrop 1000 Spectrophotometer (Thermo Scientific).”
as §2

humans = conditions: cited from earlier work
[6] = tested on: mouse cortical neuron cultures
microtubules = conditions: cited from earlier work
rats = conditions: lowest dose tested; cited from earlier work
[7] = pretreatment 18 h, two concentrations

For `CC(=O)O[C@H]1C(=O)[C@@]2(C)[C@H]([C@H](OC(=O)c3ccccc3)[C@]3(O)C[C@H](OC(=O)[C@H](O)[C@@H](NC(=O)c4ccccc4)c4ccccc4)C(C)=C1C3(C)C)[C@]1(OC(C)=O)CO[C@@H]1C[C@@H]2O` [paclitaxel, Paclitaxel], which “Effect of pretreatment on fenamidone-induced O2− production” value ([1]; pretreatment 10 μM) is on record?
The value was “attenuated”.

And the “Effect of pretreatment on fenamidone-induced soma swelling / aberrant morphology” value (cortical neurons [2]; pretreatment 10 μM)?
The value was “attenuated”.

And the “Effect on tubulin polymerization” value (purified tubulin)?
Its value is “promoted”.

What does the source list for `CC[C@@]1(O)C(=O)OCc2c1cc1n(c2=O)Cc2cc3c(CN(C)C)c(O)ccc3nc2-1` [topotecan, Topotecan hydrochloride, reference compound]?
Spontaneous synaptic activity (cortical neuron cultures): reducing spontaneous synaptic activity; Chemical cluster assigned by gene expression [3]: Cluster 5

For `CC1(C)C(C=C(Cl)Cl)C1C(=O)OC(C#N)c1ccc(F)c(Oc2ccccc2)c1` (stereo not shown) [cyfluthrin], which “Chemical cluster assigned by gene expression” value (from here on “Chemical cluster assigned”) [3] is on record?
Its value is “cluster 1”.

What about the “Calcium influx in cortical neurons” value (cortical neurons [4]) of the same compound?
The value was “stimulate sustained calcium influx”.

Which “Chemical cluster assigned” value [3] does the source give for `CC1(C)C(C(=O)OC(C#N)c2cccc(Oc3ccccc3)c2)C1(C)C` (stereo not shown) [fenpropathrin] here?
The value was “cluster 1”.

What about the “Calcium influx in cortical neurons” value (cortical neurons [4]) of the same compound?
Its value is “stimulate sustained calcium influx”.

What does the source list for `COC(=O)N(OC)c1ccccc1COc1ccn(-c2ccc(Cl)cc2)n1` [pyraclostrobin]?
Neurotoxicity in a set of assays used by regulatory agencies [5]: No evidence of neurotoxicity; Chemical cluster assigned by gene expression [3]: cluster 2; log2FoldChange, gene Acta2 (mouse cortical cultures; 0.1 μM, vs vehicle, DESeq): 3.944; log2FoldChange, gene Gpnmb (mouse cortical cultures; 0.1 μM, vs vehicle, DESeq): 3.288; log2FoldChange, gene Hspg2 (mouse cortical cultures; 0.1 μM, vs vehicle, DESeq): 3.427; log2FoldChange, gene Tagln (mouse cortical cultures; 0.1 μM, vs vehicle, DESeq): 3.548; log2FoldChange, gene Thbs1 (mouse cortical cultures; 0.1 μM, vs vehicle, DESeq): 3.263; Differentially expressed genes (DESeq) compared between the two fungicides (mouse cortical cultures; fenamidone 10 μM or pyraclostrobin 0.1 μM): up- and downregulate a largely overlapping set of genes

With `C[S+]([O-])CCCCN=C=S` (racemic) [sulforaphane, DL-sulforophane] as the compound, how does the Autism symptoms (humans) read?
The Autism symptoms was “substantially reduces autism symptoms”.

And the “Effect of pretreatment on fenamidone-induced O2− production” value [1, 7]?
Its value is “attenuated”.

What about the “Effect of pretreatment on fenamidone-induced transcriptional changes (RNA-seq)” value ([3]; pretreatment 10 μM, 18 h, fenamidone 10 μM, 24 h) of the same compound?
The value was “attenuated”.

And the “Effect of pretreatment on fenamidone-induced soma swelling / aberrant morphology” value (cortical neurons [2]; [7])?
Its value is “attenuated”.

What does the source list for `CC[C@]1(O)C[C@H]2CN(CCc3c([nH]c4ccccc34)[C@@](C(=O)OC)(c3cc4c(cc3OC)N(C=O)[C@H]3[C@@](O)(C(=O)OC)[C@H](OC(C)=O)[C@]5(CC)C=CCN6CC[C@]43[C@@H]65)C2)C1` [vincristine, vincristine sulfate salt]?
Mitochondrial superoxide (O2−) production [1]: phenocopied; Mitochondrial superoxide (O2−) production ([1]; listed as Vincristine): induced; also recorded: dose-dependent; Soma swelling / aberrant cell morphology (cortical neurons [2]): phenocopied; Soma swelling / aberrant cell morphology (cortical neurons [2]; listed as Vincristine): altered cell morphology; also recorded: dose-dependent; Effect on tubulin polymerization (purified tubulin): inhibited

Which results are given for `CO/N=C(/C1=NOCCO1)c1ccccc1Oc1ncnc(Oc2ccccc2Cl)c1F` [Fluoxastrobin, fluoxastrobin]?
O2− production at the sequencing concentration [1]: did not generate; Chemical cluster assigned by gene expression [3]: not assigned to cluster 2

Which results are given for `C=C(C)[C@H]1Cc2c(ccc3c2O[C@@H]2COc4cc(OC)c(OC)cc4[C@@H]2C3=O)O1` [rotenone]?
Non-cytotoxic concentration identified with live/dead assay [6]: 0.01 µM; Effect on microtubules (microtubules): destabilizes microtubules; Chemical cluster assigned by gene expression [3]: cluster 2

With `CO/C=C(/C(=O)OC)c1ccccc1COc1cccc(C(F)(F)F)n1` [Picoxystrobin] as the compound, how does the “Acute neurotoxicity (motor activity)” value (rats) read?
The value was “caused acute neurotoxicity (reduced motor activity) at the lowest dose tested”.

Which “O2− production at the sequencing concentration” value [1] does the source give for `CO/C=C(/C(=O)OC)c1ccccc1Oc1cc(Oc2ccccc2C#N)ncn1` [azoxystrobin] here?
The value was “did not generate”.

What about the “Chemical cluster assigned” value [3] of the same compound?
Its value is “not assigned to cluster 2”.
